PubChem BioAssay AID256 (DTP/NCI, 2004)
Values joined by “and” are separate entries in the source; they are usually repeats but may differ in a detail not shown here. Identical values can stand only once. Toxic doses and inconclusive results are not listed.

System: CD2F1 mice, L1210 leukemia ip, survival T/C
Test: NCI In Vivo Anticancer Drug Screen. Data for tumor model L1210 Leukemia (intraperitoneal) in CD2F1 (CDF1) mice
Details: higher = longer survival
Method in brief: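 Antitumor effect is scored in animals hosting a serially transplanted tumor. Values compare compound-dosed animals against vehicle-only controls as a simple quotient.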

[1] = endpoint: mean survival time, dose: 100.0 mg/kg/injection, schedule: Q01DX009 (ip), vehicle: saline with Tween-80
[2] = endpoint: mean survival time, dose: 200.0 mg/kg/injection, schedule: Q01DX009 (ip), vehicle: saline with Tween-80
[3] = endpoint: mean survival time, dose: 400.0 mg/kg/injection, schedule: Q01DX009 (ip), vehicle: saline with Tween-80
[4] = endpoint: mean survival time, dose: 6.25 mg/kg/injection, schedule: Q04DX003 (ip), vehicle: saline with Tween-80
[5] = endpoint: mean survival time, dose: 12.5 mg/kg/injection, schedule: Q04DX003 (ip), vehicle: saline with Tween-80
[6] = endpoint: mean survival time, dose: 25.0 mg/kg/injection, schedule: Q04DX003 (ip), vehicle: saline with Tween-80
[7] = endpoint: mean survival time, dose: 100.0 mg/kg/injection, schedule: Q01DX001 (ip), vehicle: Klucel (hydroxypropylcellulose) (HPC)
[8] = endpoint: mean survival time, dose: 200.0 mg/kg/injection, schedule: Q01DX001 (ip), vehicle: Klucel (hydroxypropylcellulose) (HPC)
[9] = endpoint: mean survival time, dose: 400.0 mg/kg/injection, schedule: Q01DX001 (ip), vehicle: Klucel (hydroxypropylcellulose) (HPC)
[10] = endpoint: mean survival time, dose: 25.0 mg/kg/injection, schedule: Q01DX009 (ip), vehicle: water
[11] = endpoint: mean survival time, dose: 50.0 mg/kg/injection, schedule: Q01DX009 (ip), vehicle: water
[12] = endpoint: mean survival time, dose: 100.0 mg/kg/injection, schedule: Q01DX009 (ip), vehicle: water
[13] = endpoint: mean survival time, dose: 200.0 mg/kg/injection, schedule: Q01DX009 (ip), vehicle: water
[14] = endpoint: mean survival time, dose: 100.0 mg/kg/injection, schedule: Q04DX002 (ip), vehicle: saline with Tween-80
[15] = endpoint: mean survival time, dose: 12.5 mg/kg/injection, schedule: Q01DX009 (ip), vehicle: saline with Tween-80
[16] = endpoint: mean survival time, dose: 25.0 mg/kg/injection, schedule: Q01DX009 (ip), vehicle: saline with Tween-80
[17] = endpoint: mean survival time, dose: 50.0 mg/kg/injection, schedule: Q01DX009 (ip), vehicle: saline with Tween-80
[18] = endpoint: mean survival time, dose: 6.25 mg/kg/injection, schedule: Q01DX009 (ip), vehicle: saline with Tween-80
[19] = endpoint: mean survival time, dose: 200.0 mg/kg/injection, schedule: Q04DX002 (ip), vehicle: saline with Tween-80
[20] = endpoint: mean survival time, dose: 400.0 mg/kg/injection, schedule: Q04DX002 (ip), vehicle: saline with Tween-80
[21] = endpoint: mean survival time, dose: 100.0 mg/kg/injection, schedule: Q04DX003 (ip), vehicle: saline with Tween-80

## OC(Cc1ccc2ccccc2n1)C(Cl)(Cl)Cl (stereo not given)
endpoint: mean survival time, dose: 100.0 mg/kg/injection, schedule: Q04DX003 (ip), vehicle: alcohol
  T/C: 95 % of control
endpoint: mean survival time, dose: 200.0 mg/kg/injection, schedule: Q04DX003 (ip), vehicle: alcohol
  T/C: 95 % of control
endpoint: mean survival time, dose: 400.0 mg/kg/injection, schedule: Q04DX003 (ip), vehicle: alcohol
  T/C: 101 % of control

## CCN1C2CCC1CC(O)C2 (stereo not given)
endpoint: mean survival time, dose: 100.0 mg/kg/injection, schedule: Q04DX002 (ip), vehicle: saline
  T/C: 94 % of control
endpoint: mean survival time, dose: 200.0 mg/kg/injection, schedule: Q04DX002 (ip), vehicle: saline
  T/C: 94 % of control
endpoint: mean survival time, dose: 400.0 mg/kg/injection, schedule: Q04DX002 (ip), vehicle: saline
  T/C: 105 % of control

## O=C1C=CC(=O)N1CO (tested in a mixture with another compound)
[1]
  T/C: 98 % of control
[2]
  T/C: 98 % of control
[3]
  T/C: 93 % of control

## C/C(=C/c1ccc([N+](=O)[O-])cc1)C(=O)O
endpoint: mean survival time, dose: 100.0 mg/kg/injection, schedule: Q01DX001 (ip), vehicle: saline with Tween-80
  T/C: 103 % of control
endpoint: mean survival time, dose: 200.0 mg/kg/injection, schedule: Q01DX001 (ip), vehicle: saline with Tween-80
  T/C: 100 % of control
endpoint: mean survival time, dose: 400.0 mg/kg/injection, schedule: Q01DX001 (ip), vehicle: saline with Tween-80
  T/C: 103 % of control

## COc1ccccc1[As](=O)(O)CC(O)COc1ccccc1 (stereo not given)
[4]
  T/C: 103 % of control
[5]
  T/C: 104 % of control
[6]
  T/C: 113 % of control

## CS(=O)(=O)OC(C(Br)CBr)C(OS(C)(=O)=O)C(Br)CBr (stereo not given)
[7]
  T/C: 87 % of control
[8]
  T/C: 90 % of control
[9]
  T/C: 88 % of control

## CC(O)CN1CCOCC1 (stereo not given)
[1]
  T/C: 101 % of control
[2]
  T/C: 105 % of control
[3]
  T/C: 100 % of control

## O=c1nc2n(cc1F)C1OC(CCl)C(O)C1O2 (stereo not given)
endpoint: median survival time, dose: 12.5 mg/kg/injection, schedule: Q01DX005 (ip), vehicle: saline with Tween-80
  T/C: 101 % of control
endpoint: median survival time, dose: 25.0 mg/kg/injection, schedule: Q01DX005 (ip), vehicle: saline with Tween-80
  T/C: 104 % of control
endpoint: median survival time, dose: 50.0 mg/kg/injection, schedule: Q01DX005 (ip), vehicle: saline with Tween-80
  T/C: 97 % of control
endpoint: median survival time, dose: 100.0 mg/kg/injection, schedule: Q01DX005 (ip), vehicle: saline with Tween-80
  T/C: 101 % of control
endpoint: median survival time, dose: 200.0 mg/kg/injection, schedule: Q01DX005 (ip), vehicle: saline with Tween-80
  T/C: 105 % of control

## CCC[CH2][Sn]([CH2]CCC)([n]1cncn1)[n]1cncn1
[5]
  T/C: 105 % of control

## N#C[C@H](OC1OC(COC2OC(CO)C(O)C(O)C2O)C(O)C(O)C1O)c1ccccc1 (stereo not given in full)
endpoint: mean survival time, dose: 25.0 mg/kg/injection, schedule: Q01DX009 (ip), vehicle: saline
  T/C: 98 % of control
[10]
  T/C: 96 % of control
endpoint: mean survival time, dose: 50.0 mg/kg/injection, schedule: Q01DX009 (ip), vehicle: saline
  T/C: 97 % of control
[11]
  T/C: 103 % of control
endpoint: mean survival time, dose: 100.0 mg/kg/injection, schedule: Q01DX009 (ip), vehicle: saline
  T/C: 101 % of control
[12]
  T/C: 96 % of control
endpoint: mean survival time, dose: 200.0 mg/kg/injection, schedule: Q01DX009 (ip), vehicle: saline
  T/C: 104 % of control
[13]
  T/C: 96 % of control
endpoint: mean survival time, dose: 400.0 mg/kg/injection, schedule: Q01DX009 (ip), vehicle: saline
  T/C: 98 % of control
endpoint: mean survival time, dose: 400.0 mg/kg/injection, schedule: Q01DX009 (ip), vehicle: water
  T/C: 105 % of control
endpoint: mean survival time, dose: 800.0 mg/kg/injection, schedule: Q01DX009 (ip), vehicle: saline
  T/C: 107 % of control
endpoint: mean survival time, dose: 800.0 mg/kg/injection, schedule: Q01DX009 (ip), vehicle: water
  T/C: 102 % of control

## CCCCCCCCCCCCCCCCCCN=C(N)N
[7]
  T/C: 103 % of control
[8]
  T/C: 96 % of control
[9]
  T/C: 88 % of control

## CCOC1CCN(CCCn2c3ccccc3c3ccccc32)CC1
endpoint: mean survival time, dose: 25.0 mg/kg/injection, schedule: Q04DX002 (ip), vehicle: saline with Tween-80
  T/C: 95 % of control
endpoint: mean survival time, dose: 50.0 mg/kg/injection, schedule: Q04DX002 (ip), vehicle: saline with Tween-80
  T/C: 100 % of control
[14]
  T/C: 97 % of control and 111 % of control

## ClC(Cl)(Cl)C1=NCc2nnn(Cc3ccccc3)c2N1
[15]
  T/C: 100 % of control
[16]
  T/C: 92 % of control
[17]
  T/C: 105 % of control
[1]
  T/C: 100 % of control
[2]
  T/C: 107 % of control
[3]
  T/C: 94 % of control

## O=S(O)C(=Nc1ccccc1)Nc1ccccc1
[1]
  T/C: 94 % of control
[2]
  T/C: 106 % of control

## O=C(O)C(Br)C(Br)C(=O)O (stereo not given)
endpoint: mean survival time, dose: 50.0 mg/kg/injection, schedule: Q01DX001 (ip), vehicle: carboxymethylcellulose (CMC)
  T/C: 98 % of control
endpoint: mean survival time, dose: 100.0 mg/kg/injection, schedule: Q01DX001 (ip), vehicle: carboxymethylcellulose (CMC)
  T/C: 93 % of control
endpoint: mean survival time, dose: 200.0 mg/kg/injection, schedule: Q01DX001 (ip), vehicle: carboxymethylcellulose (CMC)
  T/C: 95 % of control

## O=NCC1(Cl)CC2C=CC1C2 (stereo not given)
[18]
  T/C: 97 % of control
[15]
  T/C: 98 % of control
[16]
  T/C: 98 % of control

## CCN(CC)CC(C)Nc1c2ccc(Cl)cc2nc2ccc(OC)cc12 (stereo not given)
[14]
  T/C: 94 % of control
[19]
  T/C: 91 % of control
[20]
  T/C: 97 % of control

## c1ccc(Oc2ccc(Nc3c4ccccc4nc4ccccc34)cc2)cc1
[14]
  T/C: 101 % of control
[19]
  T/C: 101 % of control
[20]
  T/C: 104 % of control

## O=C(c1ccc(-c2ccccc2)cc1)C1CCCCC1
[1]
  T/C: 94 % of control
[2]
  T/C: 97 % of control
[3]
  T/C: 86 % of control

## O=Cc1[nH]c(=S)[nH]c(=O)c1Cc1ccc(Cl)cc1
[21]
  T/C: 104 % of control

## CCCCOc1ccc(C=Nc2ccc(CC)cc2)cc1
[21]
  T/C: 101 % of control
endpoint: mean survival time, dose: 200.0 mg/kg/injection, schedule: Q04DX003 (ip), vehicle: saline with Tween-80
  T/C: 97 % of control
endpoint: mean survival time, dose: 400.0 mg/kg/injection, schedule: Q04DX003 (ip), vehicle: saline with Tween-80
  T/C: 103 % of control

## COc1ccc(OC)c(CC(C(C)=O)C(C)=O)c1
endpoint: mean survival time, dose: 12.5 mg/kg/injection, schedule: Q01DX009 (ip), vehicle: water
  T/C: 100 % of control
[10]
  T/C: 96 % of control
[11]
  T/C: 100 % of control
[12]
  T/C: 98 % of control
[13]
  T/C: 95 % of control

## O=NN(CCCl)C(=O)NC1CSCSC1
endpoint: mean survival time, dose: 6.0 mg/kg/injection, schedule: Q01DX001 (ip), vehicle: saline with Tween-80
  T/C: 164 % of control
endpoint: mean survival time, dose: 9.0 mg/kg/injection, schedule: Q01DX001 (ip), vehicle: saline with Tween-80
  T/C: 297 % of control
endpoint: mean survival time, dose: 13.0 mg/kg/injection, schedule: Q01DX001 (ip), vehicle: saline with Tween-80
  T/C: 331 % of control
endpoint: mean survival time, dose: 20.0 mg/kg/injection, schedule: Q01DX001 (ip), vehicle: saline with Tween-80
  T/C: 352 % of control
endpoint: mean survival time, dose: 30.0 mg/kg/injection, schedule: Q01DX001 (ip), vehicle: saline with Tween-80
  T/C: 344 % of control

## COCCNP(=O)(OC(C)C)OC(C)C
endpoint: mean survival time, dose: 100.0 mg/kg/injection, schedule: Q04DX003 (ip), vehicle: saline
  T/C: 100 % of control
endpoint: mean survival time, dose: 200.0 mg/kg/injection, schedule: Q04DX003 (ip), vehicle: saline
  T/C: 97 % of control
endpoint: mean survival time, dose: 400.0 mg/kg/injection, schedule: Q04DX003 (ip), vehicle: saline
  T/C: 101 % of control

## O=C(O)C1C(C(=O)O)C(C(=O)O)C1C(=O)O (stereo not given)
[17]
  T/C: 109 % of control
[1]
  T/C: 95 % of control
[2]
  T/C: 108 % of control

## CCCCOC(=O)CCl
endpoint: mean survival time, dose: 100.0 mg/kg/injection, schedule: Q01DX001 (ip), vehicle: saline
  T/C: 100 % of control
endpoint: mean survival time, dose: 200.0 mg/kg/injection, schedule: Q01DX001 (ip), vehicle: saline
  T/C: 94 % of control

## NC(=O)CC=O
endpoint: mean survival time, dose: 75.0 mg/kg/injection, schedule: Q01DX001 (ip), vehicle: saline
  T/C: 98 % of control
endpoint: mean survival time, dose: 150.0 mg/kg/injection, schedule: Q01DX001 (ip), vehicle: saline
  T/C: 93 % of control
endpoint: mean survival time, dose: 300.0 mg/kg/injection, schedule: Q01DX001 (ip), vehicle: saline
  T/C: 95 % of control

## COc1cc(CNC(=O)CCCC2CCC2)ccc1O
endpoint: mean survival time, dose: 3.13 mg/kg/injection, schedule: Q01DX009 (ip), vehicle: saline with Tween-80
  T/C: 96 % of control
[18]
  T/C: 94 % of control and 97 % of control
[4]
  T/C: 96 % of control
[15]
  T/C: 86 % of control and 97 % of control
[5]
  T/C: 101 % of control
[16]
  T/C: 100 % of control
[6]
  T/C: 95 % of control
